Test results reported in patent US12011475B2, “Polypeptide, polypeptide fragment, derivative thereof, and applications thereof” (CHENGDU HUITAI BIOMEDICINE CO., LTD., priority 2017, dated 2024).
Ends that are not written are not given here.

What was measured:
Assay type in all cases: in vivo
[1] = tested on: rat with pulmonary fibrosis induced by bleomycin; experiment: Rat body weight, intravenous injection (Examples 20-21); settings: Day 14/Day 0; intravenous injection 10 mg/kg once a day, 4th to 13th day after bleomycin 4 mg/kg; Mean ± SEM
Excerpt: The model and the administration route were referred to Example 15. The experimental rats in the control group, the model group, and the treatment groups described in Example 15 were weighted every day from the 1st day until the 14th day. When weighing, the “unstable weighing” of the electronic balance was selected, and an appropriate number of weighing and a degree of tolerable instability during the reading phase were set according to the instructions to weigh and record the readings. The result is shown in the weight ratios in FIG. 2 (Day 14/Day 0).
(§1) The rats were weighed before administration, intramuscularly injected with 65 mg/kg Zoletil anesthetic solution. After the rats entered the stage III anesthesia, the experimental rats were fixated in the lateral decubitus. Gavage needle size 12 was inserted into rat trachea through oral cavity along the glottis to instill sterile saline or bleomycin (4 mg/kg) (Day 0). After the anesthesia, the rats in control group were intratracheally instilled with an equal volume of sterile saline, and the rats in model group and treatment groups were intratracheally instilled with bleomycin (4 mg/kg). On the 4th day, the sterile saline or peptide drug was injected through the tail vein once a day until the 13th day. The rats were sacrificed on the 14th day for subsequent experiments. […]

[2] = tested on: rat with pulmonary fibrosis induced by bleomycin; experiment: HE staining score, intravenous injection (Example 23); settings: inflammatory pathology score, grade 0 to 3; intravenous injection 10 mg/kg once a day, 4th to 13th day after bleomycin 4 mg/kg; Mean ± SEM
Excerpt: (§2) The lung tissue of the rats of Example 2 was taken, fixed with 4% paraformaldehyde and embedded in paraffin. The wax block embedded the lung tissue was sectioned along the largest cross section. Pathological changes in lung tissue were observed using hematoxylin-eosin (HE) staining. Pathological changes in lung tissue were observed under a light microscope (low magnification) at a magnification of 100 times (the result is shown in FIG. 2).
According to the method provided by Szapie, et al., the degree of alveolitis was graded according to the range of lesions and could be divided into 0 to 3 grades, corresponding to 0 to 3 points. The evaluation indexes for the degree of alveolitis are as follows: grade 0, no alveolitis; grade 1, mild alveolitis, manifested as a slight increase in alveolar septum, infiltration of monocytes, near the pleura or localized, with a lesion range of less than 20% without alveolar structural damage; grade 2, moderate alveolitis, the lesion ranges from 20% to 50%, relatively severe near the pleura; grade 3, severe alveolitis, diffusely distributed, the lesion range is more than 50%, with pulmonary parenchymal lesion occasionally.
The rats were weighed before administration, intramuscularly injected with 65 mg/kg Zoletil anesthetic solution. After the rats entered the stage III anesthesia, the experimental rats were fixated in the lateral decubitus. […]

[3] = tested on: rat with pulmonary fibrosis induced by bleomycin; experiment: Masson staining score, intravenous injection (Example 24); settings: fibrosis pathology score, grade 0 to 8; intravenous injection 10 mg/kg once a day, 4th to 13th day after bleomycin 4 mg/kg; Mean ± SEM
Excerpt: as §2, with “9” for “2”, “staining by Masson's trichrome stain (Masson).” for “hematoxylin-eosin (HE) staining.”, “15).” for “2).”
According to the Modified Ashcroft scale scoring method, the degree of pulmonary fibrosis was evaluated according to the range of lesions and could be divided into 0 to 8 grades.
as §1, with “day.” for “day. The rats were sacrificed on the 14th day for subsequent experiments.”

[4] = tested on: rat with pulmonary fibrosis induced by bleomycin; experiment: Rat weight, intratracheal instillation (Examples 15-16); settings: Day 14/Day 0, 8 mg/kg peptide + 4 mg/kg bleomycin simultaneously, Mean ± SEM
Experimental: The rats were weighed before administration, intramuscular injection of Zoletil anesthetic solution, the dose was 65 mg/kg. After the rats entered the stage III anesthesia, the experimental rats were bond in the incline lateral decubitus. A size 12 gavage needle was inserted into rat trachea through oral cavity along the glottis to infuse the drug. The experimental animals were fed normally from the 1st day to the 14th day after intratracheal administration, and were weighed regularly every day without restriction of feed or drinking water.
The rats in model group were intratracheally instilled with bleomycin (4 mg/kg); after anesthesia, the rats in treatment groups were intratracheally instilled with bleomycin (4 mg/kg) and corresponding therapeutic drug (8 mg/kg) simultaneously. The remaining implementation steps were the same as the description of Example 9.
The model and the administration route were referred to Example 15. The experimental rats in the control group, the model group, and the treatment groups described in Example 15 were weighted every day from the 1st day until the 14th day. When weighing, the “unstable weighing” of the electronic balance was selected, and an appropriate number of weighing and a degree of tolerable instability during the reading phase were set according to the instructions to weigh and record the readings. […]

[5] = tested on: active TGF-β; experiment: Active TGF-β content in rat lung tissue by ELISA (Example 27); settings: active TGF-β/total TGF-β; intravenous injection 10 mg/kg once a day, 4th to 13th day after bleomycin 4 mg/kg; Mean ± SEM
Experimental: The rat lung tissue in the model group, the control group and the N4 treatment group of Example 9 was taken, and homogenized using RIPA lysate (100 mg of lung tissue corresponding to 1 mL of lysate), centrifuged and the supernatant was taken, and then the protein concentration was determined by BCA method. Equal amounts of protein samples were taken and the active TGF-β content was measured by enzyme-linked immunosorbent assay ELISA (Promega, Cat. No. G7591) (the result is shown in FIG. 10), and one-way ANOVA was used for biostatistical analysis.
as §1, with “mg/kg).” for “mg/kg). On the 4th day, the sterile saline or peptide drug was injected through the tail vein once a day until the 13th day. The rats were sacrificed on the 14th day for subsequent experiments.”
The rat lung tissue in the model group, the control group and the treatment groups of Example 20 was taken, and the active TGF-β content was measured by ELISA. […]

[6] = tested on: tgf-β; experiment: mRNA content of tgf-β in rat lung tissue by qPCR (Example 26); settings: 18S RNA internal reference; intravenous injection 10 mg/kg once a day, 4th to 13th day after bleomycin 4 mg/kg; Mean ± SEM
Experimental: as §1
The rat lung tissue in the control group, the model group and the treatment groups of Example 20 was taken. […] After obtaining cDNA using reverse transcription, fluorescence quantitative PCR (qPCR) kit (Applied Biosystems, Cat. No. 4319413E) was used to detect the mRNA content of tgf-β (forward primer: GAGGTGACCTGGGCACCAT, reverse primer: GGCCATGAGGAGCAGGAA), 18S RNA was used as an internal reference, and the result is shown in the tgf-β values in Table 4.

YRVRFLAKENVTQDAEDN [N1]
Weight Ratio [1]: 1.05 ± 0.02
HE Score [2]: 2.44 ± 0.24
Masson Score [3]: 3.85 ± 0.11
Weight Ratio [4]: 1.05 ± 0.02
TGF-β (active TGF-β content in lung tissue) [5]: 13.15 ± 0.48
tgf-β (mRNA content of tgf-β in lung tissue) [6]: 2.50 ± 0.04
